Assays:
Trypsin II = biological target: T1, Trypsin II (Bos taurus, UniProt Q29463); assay: Binding affinity on bovine pancreatic trypsin enzyme
T1 sequence (Q29463 whole entry): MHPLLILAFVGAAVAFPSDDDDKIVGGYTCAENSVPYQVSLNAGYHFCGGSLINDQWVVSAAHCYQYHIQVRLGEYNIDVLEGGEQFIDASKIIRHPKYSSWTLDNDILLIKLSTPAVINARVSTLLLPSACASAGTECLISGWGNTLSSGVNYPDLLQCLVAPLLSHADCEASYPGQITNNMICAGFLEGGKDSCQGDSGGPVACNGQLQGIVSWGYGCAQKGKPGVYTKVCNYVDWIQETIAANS

Prothrombin = Prothrombin (Homo sapiens, UniProt P00734); assay: Binding affinity on Thrombin

Compound | Ki (Trypsin II) [nM] | Ki (Prothrombin) [nM]
O=C1[C@@H](NS(=O)(=O)c2cc3ncccc3s2)CCN1Cc1cc2cc[nH]cc-2n1 | > 2900 | > 4000
Nc1nccc2ccc(CN3CC[C@H](NS(=O)(=O)c4cc5ncccc5s4)C3=O)cc12 | > 2900 | –

Source: ChEMBL document CHEMBL1133625, “Crystal structures of human factor Xa complexed with potent inhibitors” (J Med Chem, 2000)
